Results on ten compounds are retold here after patent publication US20140051679A1, “KINASE INHIBITORS AND METHOD OF TREATING CANCER WITH SAME” (UNIVERISTY HEALTH NETWORKS, priority 2011, published 2014).

Structures are written as SMILES.

What is called IC50 is the concentration that gives 50% inhibition. For orientation: GI50 means the concentration at which growth is held to half of that of the control.

One experiment concerns the target T1, human PLK4 (Homo sapiens, UniProt O00444).
T1 construct: amino terminal GST fusion of residues 1-391 of human PLK4; made in house; host or cells: E. coli
T1 sequence (O00444 1-391): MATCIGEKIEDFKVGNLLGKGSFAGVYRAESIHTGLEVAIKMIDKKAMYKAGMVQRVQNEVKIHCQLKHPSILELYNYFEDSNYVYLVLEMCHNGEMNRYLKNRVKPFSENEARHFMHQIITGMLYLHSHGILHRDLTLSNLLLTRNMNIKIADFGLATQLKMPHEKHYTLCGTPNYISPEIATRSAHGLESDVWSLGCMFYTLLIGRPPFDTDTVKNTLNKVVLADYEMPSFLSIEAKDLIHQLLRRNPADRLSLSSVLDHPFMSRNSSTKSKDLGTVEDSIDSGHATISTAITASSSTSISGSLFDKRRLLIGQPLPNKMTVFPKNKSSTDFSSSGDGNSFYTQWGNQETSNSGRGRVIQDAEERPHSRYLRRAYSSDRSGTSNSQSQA
The experiment is described as follows: PLK4 inhibition assay (indirect ELISA). The format is biochemical. The conditions noted are these: GST-PLK4 4 nM, 15 μM ATP; read-out: IC50 Ranges PLK4. The essentials: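 Dephosphorylated GST-tagged human PLK4 (residues 1-391, E. coli), 4 nM, preincubated 15 min with compound, then reacted 30 min with 15 μM ATP on MBP-coated plates (50 mM HEPES pH 7.5, 10 mM MgCl2, 0.01% Brij 35). Phospho-MBP detected by antibody ELISA at 450 nm. Tested at 10 μM or 10-point titrations; IC50 from 4-parameter logistic fit.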
A general note: In an ELISA, binding on a coated surface is turned into a signal by an enzyme label.

For the next experiment, the target named is T2, Aurora B (Homo sapiens, UniProt Q96GD4).
T2 construct: purchased Invitrogen PV3970
The experiment is described as follows: Aurora B inhibition assay (Z-Lyte). Type of experiment: biochemical. The conditions noted are these: 28 nM Aurora B, 128 μM ATP; read-out: IC50 Ranges Aurora B. As to the method:
Aurora B inhibition was determined using the Z-Lyte assay kit from Invitrogen. The assay was performed using the recommended manufacturer's instructions with 128 μM ATP and 28 nM Aurora B (Invitrogen cat #PV3970). The % inhibition values were determined according to the manufacturer's directions and IC50 values were obtained using a non-linear 4 point logistic curve fit (XLfit4, IDBS)

Another experiment deals with T3, human TTK (Homo sapiens, UniProt P33981).
T3 construct: amino terminal GST fusion of full length human TTK; purchased Invitrogen
T3 sequence (P33981 1-857): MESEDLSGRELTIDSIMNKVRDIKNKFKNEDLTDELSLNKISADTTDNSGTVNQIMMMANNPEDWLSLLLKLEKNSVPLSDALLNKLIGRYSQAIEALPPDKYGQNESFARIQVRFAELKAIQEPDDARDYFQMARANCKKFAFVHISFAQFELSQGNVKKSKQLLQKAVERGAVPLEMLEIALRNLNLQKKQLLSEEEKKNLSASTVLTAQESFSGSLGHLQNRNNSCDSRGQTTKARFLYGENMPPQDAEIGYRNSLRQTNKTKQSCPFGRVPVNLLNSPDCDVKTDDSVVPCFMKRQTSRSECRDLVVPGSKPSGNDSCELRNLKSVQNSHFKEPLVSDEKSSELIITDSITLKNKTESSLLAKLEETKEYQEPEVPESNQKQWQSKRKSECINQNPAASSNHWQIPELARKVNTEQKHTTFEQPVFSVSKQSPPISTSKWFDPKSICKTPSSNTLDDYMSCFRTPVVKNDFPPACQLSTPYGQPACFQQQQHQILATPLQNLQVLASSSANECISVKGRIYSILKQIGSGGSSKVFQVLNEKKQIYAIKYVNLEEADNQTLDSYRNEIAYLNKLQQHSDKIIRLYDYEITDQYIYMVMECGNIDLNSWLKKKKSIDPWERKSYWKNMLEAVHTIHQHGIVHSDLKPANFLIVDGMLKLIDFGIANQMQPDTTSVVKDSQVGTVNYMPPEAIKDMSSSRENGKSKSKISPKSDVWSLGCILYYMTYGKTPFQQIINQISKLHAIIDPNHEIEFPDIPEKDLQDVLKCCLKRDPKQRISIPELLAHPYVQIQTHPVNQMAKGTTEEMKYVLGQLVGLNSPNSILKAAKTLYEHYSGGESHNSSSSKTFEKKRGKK
The experiment can be described thus: TTK inhibition assay (indirect ELISA). The format is biochemical. As to conditions: GST-TTK 0.68 nM, 16 μM ATP; read-out: IC50 Ranges TTK.

The subject of experiment [1] is MDA-MB-231 breast cancer cells. The experiment can be described thus: Cell growth inhibition, Sulforhodamine B assay, MDA-MB-231. The format is cell-based. As to conditions: Homo sapiens, 120 h, 5 days culture, SRB assay, read-out: Cell Line GI50 Range MDA-MB-231.
Experiment [2] has as its system PA-1 ovarian cancer cells. The experiment is described as follows: Cell growth inhibition, Sulforhodamine B assay, PA-1. As to conditions: 120 h, 5 days culture, SRB assay, read-out: Cell Line GI50 Range PA-1. Type of experiment: cell-based. Background: In SRB staining, fixed cells bind dye roughly in proportion to their protein.
For the next experiment, the system named is HT29 colon cancer cells. The experiment is described as follows: Cell growth inhibition, Sulforhodamine B assay, HT29. The format is cell-based. As to conditions: Homo sapiens, HT-29, 120 h, 5 days culture, SRB assay, read-out: Cell Line GI50 Range HT29.
Experiment [3] concerns OVCAR-3 ovarian cancer cells. The experiment is described as follows: Cell growth inhibition, Sulforhodamine B assay, OVCAR-3. Type of experiment: cell-based. The conditions noted are these: Homo sapiens, 120 h, 5 days culture, SRB assay, read-out: Cell Line GI50 Range OVCAR-3.
The subject of experiment [4] is MDA-MB-468 breast cancer cells. The experiment is described as follows: Cell growth inhibition, Sulforhodamine B assay, MDA-MB-468. The conditions noted are these: Homo sapiens, 120 h, 5 days culture, SRB assay, read-out: Cell Line GI50 Range MDA-MB-468. The format is cell-based.
Experiment [5] deals with HCT116 colon cancer cells. The experiment can be described thus: Cell growth inhibition, Sulforhodamine B assay, HCT116. Type of experiment: cell-based. As to conditions: Homo sapiens, HCT-116, 120 h, 5 days culture, SRB assay, read-out: Cell Line GI50 Range HCT116.

T2 sequence (Q96GD4 whole entry): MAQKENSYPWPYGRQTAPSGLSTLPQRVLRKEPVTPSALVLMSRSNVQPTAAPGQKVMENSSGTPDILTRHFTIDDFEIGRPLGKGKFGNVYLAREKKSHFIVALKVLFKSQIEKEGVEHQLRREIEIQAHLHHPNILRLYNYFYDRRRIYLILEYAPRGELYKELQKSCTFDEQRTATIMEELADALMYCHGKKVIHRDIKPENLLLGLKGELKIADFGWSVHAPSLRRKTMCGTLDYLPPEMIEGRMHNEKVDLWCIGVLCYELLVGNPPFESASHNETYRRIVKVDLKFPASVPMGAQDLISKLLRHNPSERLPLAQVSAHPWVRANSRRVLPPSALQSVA

Turning to `COCCN1CCC(Oc2ccc(-c3n[nH]c4ccc(C(=O)NC(c5ccccc5)C5CCCC5)cc34)cc2)CC1` (stereo not drawn) [Example A161, N-(cyclopentyl(phenyl)methyl)-3-(4-((1-(2-methoxyethyl)piperidin-4-yl)oxy)phenyl)-1H-indazole-5-carboxamide], the IC50 at human PLK4, on Aurora B and on human TTK was at most 5 µM in each case. The GI50 (in experiment [1]; in experiment [2]; in the experiment with HT29 colon cancer cells; in [3]; in experiment [4]; in [5]) was at most 5 µM throughout.
With `CN1CCC(Oc2ccc(-c3n[nH]c4ccc(C(=O)N[C@@H](CCO)c5ccccc5)cc34)cc2)CC1` [Example A125, (S)—N-(3-hydroxy-1-phenylpropyl)-3-(4-((1-methylpiperidin-4-yl)oxy)phenyl)-1H-indazole-5-carboxamide], the IC50 at human PLK4, at Aurora B and on human TTK was at most 5 µM throughout. Also, the GI50 (in experiment [1]; in [2]; with HT29 colon cancer cells; in experiment [3]; in experiment [4]; in experiment [5]) was at most 5 µM throughout.
With `CN1CCC(Oc2ccc(-c3n[nH]c4ccc(C(=O)NCc5ccccc5CN5CCOCC5)cc34)cc2)CC1` [Example A109, 3-(4-(1-Methylpiperidin-4-yloxy)phenyl)-N-(2-(morpholinomethyl)benzyl)-1H-indazole-5-carboxamide], the half-maximal inhibitory concentration (IC50) on human PLK4, at Aurora B and on human TTK was at most 5 µM throughout. The GI50 (in experiment [1]; in [2]; with HT29 colon cancer cells; in experiment [3]; in [4]; in experiment [5]) was at most 5 µM in each case.
As for `Cc1ccccc1C(NC(=O)c1ccc2[nH]nc(-c3ccc(OC4CCN(C)CC4)cc3)c2c1)C(C)C` (stereo not drawn) [Example A143, N-(2-methyl-1-(o-tolyl)propyl)-3-(4-((1-methylpiperidin-4-yl)oxy)phenyl)-1H-indazole-5-carboxamide], the half-inhibitory concentration (IC50) at human PLK4, on Aurora B and on human TTK was at most 5 µM in each case. For the same compound, the GI50 (in [1]; in [2]; in the experiment on HT29 colon cancer cells; in [3]; in experiment [4]; in experiment [5]) was at most 5 µM in each case.
On to `O=C(NC(c1ccccc1)C1CC1)c1ccc2[nH]nc(-c3ccc(OC4CCN(CCO)CC4)cc3)c2c1` (stereo not drawn) [Example A104, N-(cyclopropyl(phenyl)methyl)-3-(4-((1-(2-hydroxyethyl)piperidin-4-yl)oxy)phenyl)-1H-indazole-5-carboxamide], for which the 50% inhibitory concentration (IC50) at human PLK4, at Aurora B and on human TTK was at most 5 µM throughout. Besides, the concentration for 50% growth inhibition (GI50) (in experiment [1]; in experiment [2]; with HT29 colon cancer cells; in experiment [3]; in experiment [4]; in experiment [5]) was at most 5 µM throughout.
Turning to `COCCN1CCC(Oc2ccc(-c3n[nH]c4ccc(C(=O)NC(c5ccsc5)C5CCCC5)cc34)cc2)CC1` (stereo not drawn) [Example A155, N-(cyclopentyl(thiophen-3-yl)methyl)-3-(4-((1-(2-methoxyethyl)piperidin-4-yl)oxy)phenyl)-1H-indazole-5-carboxamide], the IC50 at human PLK4, on Aurora B and at human TTK was at most 5 µM throughout. Moreover, the GI50 (in [1]; in experiment [2]; in the experiment on HT29 colon cancer cells; in experiment [3]; in experiment [4]; in [5]) was at most 5 µM throughout.
With `CN(C)C(=O)CN1CCC(Oc2ccc(-c3n[nH]c4ccc(C(=O)NC(c5ccccc5)C5CC5)cc34)cc2)CC1` (stereo not drawn) [Example A158, N-(cyclopropyl(phenyl)methyl)-3-(4-((1-(2-(dimethylamino)-2-oxoethyl)piperidin-4-yl)oxy)phenyl)-1H-indazole-5-carboxamide], the IC50 at human PLK4, on Aurora B and at human TTK was at most 5 µM throughout. In addition, the GI50 (in experiment [1]; in [2]; with HT29 colon cancer cells; in experiment [3]; in experiment [4]; in [5]) was at most 5 µM throughout.
Regarding `Cc1ccccc1CC(=O)Nc1ccc2[nH]nc(-c3ccc(OC4CCN(C)CC4)cc3)c2c1` [Example A92, N-(3-(4-(1-Methylpiperidin-4-yloxy)phenyl)-1H-indazol-5-yl)-2-o-tolylacetamide], the half-inhibitory concentration (IC50) on human PLK4, at Aurora B and on human TTK was at most 5 µM in each case. The GI50 (in experiment [1]; in experiment [2]; in the experiment with HT29 colon cancer cells; in [3]; in experiment [4]; in experiment [5]) was at most 5 µM each time.
On to `CN1CCN(C(=O)c2cccc(-c3n[nH]c4ccc(NC(=O)C(c5ccsc5)N5CCCC5)cc34)c2)CC1` (stereo not drawn) [Example A96, N-(3-(3-(4-Methylpiperazine-1-carbonyl)phenyl)-1H-indazol-5-yl)-2-(pyrrolidin-1-yl)-2-(thiophen-3-yl)acetamide], for which the IC50 was at most 5 µM on human PLK4, 5 to 50 µM on Aurora B and at most 5 µM on human TTK. The GI50 (in experiment [1]; in experiment [2]; in the experiment with HT29 colon cancer cells; in experiment [3]; in [4]; in experiment [5]) was 5 to 20 µM throughout.
Turning to `CN1CCC(Oc2ccc(-c3n[nH]c4ccc(NC(=O)C(c5ccsc5)N5CCCC5)cc34)cc2N(C)C)CC1` (stereo not drawn) [Example A113, N-(3-(3-(dimethylamino)-4-((1-methylpiperidin-4-yl)oxy)phenyl)-1H-indazol-5-yl)-2-(pyrrolidin-1-yl)-2-(thiophen-3-yl)acetamide], the 50% inhibitory concentration (IC50) at human PLK4, on Aurora B and on human TTK was at most 5 µM throughout. The GI50 (in experiment [1]; in experiment [2]; with HT29 colon cancer cells; in experiment [3]; in experiment [4]; in experiment [5]) was at most 5 µM throughout.
